# In patent publication US10246453B2, “Benzenesulfonamide compounds and their use as therapeutic agents” (Xenon Pharmaceuticals Inc., priority 2016, dated 2019):
# Where a name gives a salt, the structure may show the parent alone.
# Assays:
# NaV1.1 = NaV1.1 (Homo sapiens (Human), UniProt P35498); experiment: Sodium Influx Assay (Flux), NaV1.1; format: cell-based; settings: Trex HEK293 cells, ANG2 dye; arithmetic mean
# NaV1.6 = NaV1.6 (Homo sapiens (Human), UniProt Q9UQD0); experiment: Sodium Influx Assay (Flux), NaV1.6; settings: read-out: Flux NaV1.6 IC50; Trex HEK293 cells, ANG2 dye; arithmetic mean
# NaV1.5 = NaV1.5 (Homo sapiens (Human), UniProt Q14524); experiment: Sodium Influx Assay (Flux), NaV1.5; settings: read-out: Flux NaV1.5 IC50; Trex HEK293 cells, ANG2 dye; arithmetic mean
# NaV1.5, sequence (Q14524 other isoform, or with tags, fused parts or gaps): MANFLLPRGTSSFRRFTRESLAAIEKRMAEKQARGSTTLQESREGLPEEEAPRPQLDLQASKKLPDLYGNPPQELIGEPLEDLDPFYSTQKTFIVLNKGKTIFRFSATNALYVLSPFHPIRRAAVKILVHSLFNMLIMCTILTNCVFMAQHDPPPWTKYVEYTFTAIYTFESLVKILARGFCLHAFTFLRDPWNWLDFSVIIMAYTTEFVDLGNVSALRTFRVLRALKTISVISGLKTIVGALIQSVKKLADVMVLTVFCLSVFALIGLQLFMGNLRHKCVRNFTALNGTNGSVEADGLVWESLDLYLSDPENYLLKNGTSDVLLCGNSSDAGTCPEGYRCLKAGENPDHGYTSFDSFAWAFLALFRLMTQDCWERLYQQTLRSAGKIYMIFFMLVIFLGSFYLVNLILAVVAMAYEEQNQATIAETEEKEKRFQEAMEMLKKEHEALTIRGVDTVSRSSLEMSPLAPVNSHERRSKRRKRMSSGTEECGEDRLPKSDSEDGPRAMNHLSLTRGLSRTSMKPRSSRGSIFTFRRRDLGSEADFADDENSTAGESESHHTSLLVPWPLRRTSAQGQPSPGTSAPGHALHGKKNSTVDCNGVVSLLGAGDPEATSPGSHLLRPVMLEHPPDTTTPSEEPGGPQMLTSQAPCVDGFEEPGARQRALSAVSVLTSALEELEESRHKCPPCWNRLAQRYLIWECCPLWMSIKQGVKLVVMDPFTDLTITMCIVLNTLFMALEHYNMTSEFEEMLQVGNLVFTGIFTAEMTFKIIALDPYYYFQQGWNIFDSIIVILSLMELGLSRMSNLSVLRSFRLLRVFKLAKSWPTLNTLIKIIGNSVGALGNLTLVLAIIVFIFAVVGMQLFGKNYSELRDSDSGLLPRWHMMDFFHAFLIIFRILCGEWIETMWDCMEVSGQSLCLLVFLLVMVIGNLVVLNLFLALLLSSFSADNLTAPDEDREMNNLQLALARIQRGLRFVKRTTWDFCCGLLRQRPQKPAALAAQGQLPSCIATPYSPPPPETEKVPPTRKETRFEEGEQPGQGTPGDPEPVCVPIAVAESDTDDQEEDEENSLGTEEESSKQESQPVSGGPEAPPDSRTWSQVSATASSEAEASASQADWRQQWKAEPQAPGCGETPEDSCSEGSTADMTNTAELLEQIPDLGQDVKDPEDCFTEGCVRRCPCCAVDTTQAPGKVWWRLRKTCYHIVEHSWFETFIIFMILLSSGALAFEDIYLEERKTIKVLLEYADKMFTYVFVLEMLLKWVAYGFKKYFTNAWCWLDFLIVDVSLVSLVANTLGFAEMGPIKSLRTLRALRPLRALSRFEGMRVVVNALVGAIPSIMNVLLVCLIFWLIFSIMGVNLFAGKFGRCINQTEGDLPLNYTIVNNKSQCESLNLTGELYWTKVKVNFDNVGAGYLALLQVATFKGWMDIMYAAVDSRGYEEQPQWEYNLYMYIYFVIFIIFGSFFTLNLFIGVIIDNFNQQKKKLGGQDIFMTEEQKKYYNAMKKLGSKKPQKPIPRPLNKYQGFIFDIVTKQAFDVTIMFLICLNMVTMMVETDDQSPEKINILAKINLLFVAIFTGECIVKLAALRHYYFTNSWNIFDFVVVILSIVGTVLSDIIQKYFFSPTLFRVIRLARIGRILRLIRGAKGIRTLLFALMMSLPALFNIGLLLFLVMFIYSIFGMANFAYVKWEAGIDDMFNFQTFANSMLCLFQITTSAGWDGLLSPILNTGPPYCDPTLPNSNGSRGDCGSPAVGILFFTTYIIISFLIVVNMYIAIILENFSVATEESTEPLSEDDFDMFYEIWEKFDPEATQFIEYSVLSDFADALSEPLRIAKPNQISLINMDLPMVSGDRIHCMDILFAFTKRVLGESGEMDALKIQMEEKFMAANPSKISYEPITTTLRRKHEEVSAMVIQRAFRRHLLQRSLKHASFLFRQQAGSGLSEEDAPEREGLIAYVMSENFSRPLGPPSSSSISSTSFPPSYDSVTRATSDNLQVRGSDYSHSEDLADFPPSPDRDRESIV
SMILES,IC50 (NaV1.1),IC50 (NaV1.6),IC50 (NaV1.5)
"Cc1cc(S(=O)(=O)Nc2cscn2)c(F)cc1N(C)[C@H]1CCN(C2Cc3ccccc3C2)C1 [Example 149, (S)-4-((1-(2,3-dihydro-1H-inden-2-yl)pyrrolidin-3-yl)(methyl)amino)-2-fluoro-5-methyl-N-(thiazol-4-yl)benzenesulfonamide]",6.02 µM,0.613 µM,9.18 µM
"Cc1cn(C)c(CN2CC[C@H](N(C)c3cc(F)c(S(=O)(=O)Nc4cscn4)cc3C)C2)n1 [Example 150, (S)-4-((1-((1,4-dimethyl-1H-imidazol-2-yl)methyl)pyrrolidin-3-yl)(methyl)amino)-2-fluoro-5-methyl-N-(thiazol-4-yl)benzenesulfonamide]",> 30 µM,0.954 µM,> 30 µM
"Cc1cc(S(=O)(=O)Nc2cscn2)c(F)cc1N(C)[C@H]1CCN(Cc2cc3n(n2)CCCC3)C1 [Example 151, (S)-2-fluoro-5-methyl-4-(methyl(1-((4,5,6,7-tetrahydropyrazolo[1,5-a]pyridin-2-yl)methyl)pyrrolidin-3-yl)amino)-N-(thiazol-4-yl)benzenesulfonamide]",> 30 µM,0.41 µM,> 30 µM
"Cc1cc(S(=O)(=O)Nc2cscn2)c(F)cc1N(C)[C@H]1CCN(Cc2nc(C(F)(F)F)cs2)C1 [Example 152, (S)-2-fluoro-5-methyl-4-(methyl(1-((4-(trifluoromethyl)thiazol-2-yl)methyl)pyrrolidin-3-yl)amino)-N-(thiazol-4-yl)benzenesulfonamide]",7.21 µM,1.7 µM,8.91 µM
"Cc1cc(S(=O)(=O)Nc2cscn2)c(F)cc1N(C)[C@H]1CCN(Cc2ccn(CC(F)F)n2)C1 [Example 153, (S)-4-((1-((1-(2,2-difluoroethyl)-1H-pyrazol-3-yl)methyl)pyrrolidin-3-yl)(methyl)amino)-2-fluoro-5-methyl-N-(thiazol-4-yl)benzenesulfonamide 2,2,2-trifluoroacetate]",> 30 µM,0.185 µM,> 30 µM
"Cc1nc(CN2CC[C@H](N(C)c3cc(F)c(S(=O)(=O)Nc4cscn4)cc3C)C2)c(C(F)(F)F)o1 [Example 154, (S)-2-fluoro-5-methyl-4-(methyl(1-((2-methyl-5-(trifluoromethyl)oxazol-4-yl)methyl)pyrrolidin-3-yl)amino)-N-(thiazol-4-yl)benzenesulfonamide 2,2,2-trifluoroacetate]",16.6 µM,5.57 µM,21.7 µM
"Cc1cc(S(=O)(=O)Nc2cscn2)c(F)cc1N(C)[C@H]1CCN(Cc2ccccc2F)C1 [Example 155, (S)-2-fluoro-4-((1-(2-fluorobenzyl)pyrrolidin-3-yl)(methyl)amino)-5-methyl-N-(thiazol-4-yl)benzenesulfonamide]",12.6 µM,0.22 µM,14.4 µM
"Cc1cc(S(=O)(=O)Nc2cscn2)c(F)cc1O[C@@]1(C)CCN(Cc2ccccc2)C1 [Example 159, (S)-4-((1-benzyl-3-methylpyrrolidin-3-yl)oxy)-2-fluoro-5-methyl-N-(thiazol-4-yl)benzenesulfonamide formate]",> 30 µM,0.178 µM,> 30 µM
"CN(c1cc(F)c(S(=O)(=O)Nc2cscn2)cc1Cl)[C@H]1CCN(Cc2cccc(C(F)F)n2)C1 [Example 160, (S)-5-chloro-4-((1-((6-(difluoromethyl)pyridin-2-yl)methyl)pyrrolidin-3-yl)(methyl)amino)-2-fluoro-N-(thiazol-4-yl)benzenesulfonamide]",26.7 µM,1.69 µM,> 30 µM
"CN(c1cc(F)c(S(=O)(=O)Nc2cscn2)cc1Cl)[C@H]1CCN(Cc2cccc(C(C)(C)O)c2)C1 [Example 161, (S)-5-chloro-2-fluoro-4-((1-(3-(2-hydroxypropan-2-yl)benzyl)pyrrolidin-3-yl)(methyl)amino)-N-(thiazol-4-yl)benzenesulfonamide formate]",26 µM,4.85 µM,> 30 µM
"O=S(=O)(Nc1cscn1)c1cc(Cl)c(O[C@H]2CCN(Cc3cccc(C(F)F)c3)C[C@H]2F)cc1F [Example 162, 5-chloro-4-(((3R,4S)-1-(3-(difluoromethyl)benzyl)-3-fluoropiperidin-4-yl)oxy)-2-fluoro-N-(thiazol-4-yl)benzenesulfonamide]",6.88 µM,6.13 µM,5.78 µM
"CN(c1cc(F)c(S(=O)(=O)Nc2cscn2)cc1Cl)[C@H]1CCN(Cc2nc(C(F)F)ccc2F)C1 [Example 163, (S)-5-chloro-4-((1-((6-(difluoromethyl)-3-fluoropyridin-2-yl)methyl)pyrrolidin-3-yl)(methyl)amino)-2-fluoro-N-(thiazol-4-yl)benzenesulfonamide formate]",> 30 µM,2.8 µM,> 30 µM
"CN(c1cc(F)c(S(=O)(=O)Nc2cscn2)cc1Cl)[C@H]1CCN(Cc2ccc(C(F)(F)F)o2)C1 [Example 164, (S)-5-chloro-2-fluoro-4-(methyl(1-((5-(trifluoromethyl)furan-2-yl)methyl)pyrrolidin-3-yl)amino)-N-(thiazol-4-yl)benzene-sulfonamide 2,2,2-trifluoroacetate]",6.03 µM,4.45 µM,12.9 µM
"CN(c1cc(F)c(S(=O)(=O)Nc2cscn2)cc1Cl)[C@H]1CCN(C2Cc3ccccc3C2)C1 [Example 166, (S)-5-chloro-4-((1-(2,3-dihydro-1H-inden-2-yl)pyrrolidin-3-yl)(methyl)amino)-2-fluoro-N-(thiazol-4-yl)benzene-sulfonamide formate]",7.79 µM,3.67 µM,10.1 µM
"Cc1ccc(CN2CC[C@H](N(C)c3cc(F)c(S(=O)(=O)Nc4cscn4)cc3Cl)C2)c(F)c1 [Example 167, (S)-5-chloro-2-fluoro-4-((1-(2-fluoro-4-methylbenzyl)pyrrolidin-3-yl)(methyl)amino)-N-(thiazol-4-yl)benzene-sulfonamide]",6.44 µM,1.69 µM,8.85 µM
"CN(c1cc(F)c(S(=O)(=O)Nc2cscn2)cc1Cl)[C@H]1CCN(Cc2cccc(OC(F)F)c2)C1 [Example 168, (S)-5-chloro-4-((1-(3-(difluoromethoxy)benzyl)-pyrrolidin-3-yl)(methyl)amino)-2-fluoro-N-(thiazol-4-yl)benzene-sulfonamide formate]",4.17 µM,2.02 µM,5.89 µM
"CN(c1cc(F)c(S(=O)(=O)Nc2cscn2)cc1Cl)[C@H]1CCN(Cc2c(F)cccc2Cl)C1 [Example 169, (S)-5-chloro-4-((1-(2-chloro-6-fluorobenzyl)pyrrolidin-3-yl)(methyl)amino)-2-fluoro-N-(thiazol-4-yl)benzene-sulfonamide 2,2,2-trifluoroacetate]",4.62 µM,0.821 µM,5.27 µM
"CCCc1ccc(CN2CC[C@H](N(C)c3cc(F)c(S(=O)(=O)Nc4cscn4)cc3Cl)C2)cc1 [Example 171, (S)-5-chloro-2-fluoro-4-(methyl(1-(4-propylbenzyl)-pyrrolidin-3-yl)amino)-N-(thiazol-4-yl)benzene-sulfonamide]",2.35 µM,1.86 µM,4.96 µM
"Cc1ccc(F)c(CN2CC[C@H](N(C)c3cc(F)c(S(=O)(=O)Nc4cscn4)cc3Cl)C2)c1 [Example 172, (S)-5-chloro-2-fluoro-4-((1-(2-fluoro-5-methylbenzyl)-pyrrolidin-3-yl)(methyl)amino)-N-(thiazol-4-yl)benzene-sulfonamide 2,2,2-trifluoroacetate]",5.45 µM,0.432 µM,4.97 µM
"COc1ccc(F)c(CN2CC[C@H](N(C)c3cc(F)c(S(=O)(=O)Nc4cscn4)cc3Cl)C2)c1 [Example 173, (S)-5-chloro-2-fluoro-4-((1-(2-fluoro-5-methoxybenzyl)-pyrrolidin-3-yl)(methyl)amino)-N-(thiazol-4-yl)benzene-sulfonamide 2,2,2-trifluoroacetate]",8.75 µM,3.34 µM,9.86 µM
"COC(=O)c1cccc(CN2CC[C@H](N(C)c3cc(F)c(S(=O)(=O)Nc4cscn4)cc3Cl)C2)c1 [Example 174, methyl (S)-3-((3-((2-chloro-5-fluoro-4-(N-(thiazol-4-yl)sulfamoyl)-phenyl)(methyl)-amino)pyrrolidin-1-yl)methyl)benzoate]",10.2 µM,9.16 µM,16.2 µM
"CN(c1cc(F)c(S(=O)(=O)Nc2cscn2)cc1Cl)[C@H]1CCN(CCC(C)(C)C)C1 [Example 175, (S)-5-chloro-4-((1-(3,3-dimethylbutyl)-pyrrolidin-3-yl)(methyl)amino)-2-fluoro-N-(thiazol-4-yl)benzene-sulfonamide 2,2,2-trifluoroacetate]",13.2 µM,2.55 µM,> 30 µM
"CC(C)Oc1cccc(CN2CC[C@H](N(C)c3cc(F)c(S(=O)(=O)Nc4cscn4)cc3Cl)C2)c1 [Example 177, (S)-5-chloro-2-fluoro-4-((1-(3-isopropoxybenzyl)-pyrrolidin-3-yl)(methyl)amino)-N-(thiazol-4-yl)benzene-sulfonamide compound with triethylamine (1:0.35)]",3.91 µM,3.15 µM,7.52 µM
"CN(c1cc(F)c(S(=O)(=O)Nc2cscn2)cc1Cl)[C@H]1CCN(Cc2cccc(Br)n2)C1 [Example 178, (S)-4-((1-((6-bromopyridin-2-yl)methyl)pyrrolidin-3-yl)(methyl)amino)-5-chloro-2-fluoro-N-(thiazol-4-yl)benzene-sulfonamide]",12.9 µM,1.09 µM,16 µM
"CN(c1cc(F)c(S(=O)(=O)Nc2cscn2)cc1Cl)[C@H]1CCN(Cc2ccc(F)cc2)C1 [Example 180, (S)-5-chloro-2-fluoro-4-((1-(4-fluorobenzyl)-pyrrolidin-3-yl)(methyl)amino)-N-(thiazol-4-yl)benzene-sulfonamide]",16.8 µM,5.29 µM,25.4 µM
